# From patent publication US6201015A, “Therapeutic method for thrombocytopathy treatment” (priority 1996, dated 2001)
# Like-named read-outs stand apart in the source and are kept apart here.
# How the values were obtained:
# [1] = system: platelets (platelet rich plasma); test: Antagonistic Action on Inhibition of Platelet Aggregation (ADP-induced, SQ-29548 present, BPS or PGD2 as inhibitor); assay type: cell-based, human (healthy subject); conditions: for IC50: Homo sapiens, Platelet, ADP-induced aggregation, SQ-29548
# Experimental: A blood specimen sampled from a healthy subject was centrifuged to thereby separate platelet rich plasma (PRP) and platelet poor plasma (PPP). To the PRP was added SQ-29548, a TXA2 antagonist, and then Compound 1 was added one minute after, beraprost sodium (BPS), a prostacyclin derivative, or prostaglandin D2 (PGD2) was added to the PRP, and 1 minute thereafter, aggregation was induced by ADP. The 50% inhibitory concentration (IC50) of BPS or PGD2 was then calculated from the results. The experiment was performed on one group composed of three specimens. The results are set forth in Tables 3 and 4 (*: P<0.05, Paired t-test).
# cAMP in the platelets = test: cAMP concentration in platelets stimulated with BPS (EIA kit); assay type: cell-based, human (healthy subject); conditions: for cyclic AMP (× basal level): SQ-29548, five cases
# Experimental: A blood specimen taken from a healthy subject was centrifuged to thereby separate platelet rich plasma (PRP). To PRP was added SQ-29548, a TXA2 antagonist, and then Compound 1 was added thereto. After 1 minute, BPS (100 nM) was added to PRP, and then the reaction was stopped by 5% TCA. Thereafter, cAMP in the platelets was extracted and the cAMP concentration was determined with an EIA kit (BIOTRAK cAMP EIA SYSTEM, Amersham). The experiment was carried out on one group composed of five cases. The results are shown in Table 5 (*: P<0.05, Paired t-test).
# [2] = system: platelets (platelet rich plasma); test: Action on Platelet Aggregation (3): ADP-induced platelet aggregation in the presence of SQ-29548; assay type: cell-based, human (healthy subject); conditions: concentration within the range of 0.1 to 10 μM, Control 38 ± 4.9, *P<0.05 paired t-test
# Experimental: A blood specimen taken from a healthy subject was centrifuged to thereby separate platelet rich plasma (PRP) and platelet poor plasma (PPP). To PRP was added SQ-29548, a TXA2 antagonist, and 1 minute after, platelet aggregation was induced by ADP, and immediately after induction, any of Compounds 2 to 4 having the following structural formulae was added to PRP. The experiment was performed on one group comprising three subjects. The results are set forth in Table 6 (*: P<0.05, Paired t-test).
# Compound 2 to 4 were respectively used at a concentration within the range of 0.1 to 10 μM.
# [3] = system: platelets (platelet rich plasma); test: Action on Platelet Aggregation (2): ADP-induced platelet aggregation in the presence of SQ-29548; assay type: cell-based, human (healthy subject)
# Experimental: A blood specimen sampled from a healthy subject was centrifuged to thereby separate platelet rich plasma (PRP) and platelet poor plasma (PPP). SQ-29548, a TXA2 antagonist, was added to PRP, and 1 minute later, platelet aggregation was induced by ADP, and immediately after induction, Compound 1 was added thereto. The experiment was carried out on one group comprising three samples. The test results are shown in Table 2 (*: P<0.05, Paired t-test).
# [4] = system: platelets (platelet rich plasma); test: Action on Platelet Aggregation (1): aggregation induction in PRP in the presence of SQ-29548; assay type: cell-based, human (healthy subject); conditions: for Number of Aggregation Induction: PRP with SQ-29548, three samples
# Experimental: A blood specimen sampled from a healthy subject was centrifuged to thereby separate platelet rich plasma (PRP) and platelet poor plasma (PPP). The agent SQ-29548 (refer to Prostaglandins, 1985;29;785), a TXA2 antagonist, was added to PRP, and 1 minute later, a test drug having the following structure (hereinafter referred to as "Compound 1") was added thereto. The experiment was conducted on one group comprising three samples.
# platelets = conditions: background; cited from earlier work
# [5] = background; cited from earlier work
# [6] = cited from earlier work
# [7] = cited from earlier work; remark: listed apart in the source
smiles,measurement,setting,value
"CC#CCC(C)[C@H](O)/C=C/[C@@H]1[C@H]2c3cccc(CCCC(=O)O)c3O[C@H]2C[C@H]1O (mixture of isomers) [BPS, beraprost sodium]",IC50,"[1]; Compound 1 0 μM, read-out: IC50 of BPS",0.00799 ± 0.0014 µM
same,IC50,"[1]; in the presence of Compound 1 0.1 μM, read-out: IC50 of BPS",0.0211 ± 0.0047 µM
same,IC50,"[1]; in the presence of Compound 1 1 μM, *P<0.05, read-out: IC50 of BPS",0.0367 ± 0.0074 µM
same,cyclic AMP (× basal level),"cAMP in the platelets; BPS 100 nM, Compound 1 0 μM",8.46 ± 1.8 × basal level
CCCCC(C)(C)[C@H](O)/C=C/[C@@H]1[C@H]2c3cccc(CCC(=O)O)c3O[C@H]2C[C@H]1O (relative stereo) [Compound 2],Platelet Aggregation Rate,[2],45 ± 6.1%
CC(C)(Oc1ccccc1)[C@H](O)/C=C/[C@@H]1[C@H]2c3cccc(CCC(=O)O)c3O[C@H]2C[C@H]1O (relative stereo) [Compound 4],Platelet Aggregation Rate,[2],54 ± 4.1%
CC(C)(Oc1ccccc1)[C@H](O)/C=C/[C@@H]1[C@H]2c3cccc(CCC(=O)O)c3O[C@H]2C[C@H]1O [Compound 1],antagonism of inhibition of platelet aggregation (in words),[1]; Compound 1 0.1 and 1 μM against BPS or PGD2,physiologically antagonized inhibitory actions of BPS and PGD2 on platelet aggregation
same,effect on cAMP production (in words),"cAMP in the platelets; BPS 100 nM, Compound 1 0.1 and 1 μM",inhibited cAMP production of BPS in platelets
same,cyclic AMP (× basal level),"cAMP in the platelets; Compound 1 0.1 μM with BPS 100 nM, *P<0.05",6.45 ± 1.4 × basal level
same,cyclic AMP (× basal level),"cAMP in the platelets; Compound 1 1 μM with BPS 100 nM, *P<0.05",3.98 ± 0.9 × basal level
same,Platelet Aggregation Rate,"[3]; Compound 1 0.1 μM, without Compound 1: 52.0 ± 2.5, *P<0.05 paired t-test",61.3 ± 2.9%
same,Platelet Aggregation Rate,"[3]; Compound 1 1 μM, without Compound 1: 52.0 ± 2.5, asterisk not given",70.0 ± 3.0%
same,effect on aggregation of platelets (in words),[3]; Compound 1 0.1 and 1 μM,enhanced aggregation of platelets
same,Number of Aggregation Induction,[4]; Compound 1 0.1 μM,0
same,Number of Aggregation Induction,[4]; Compound 1 1 μM,0
same,Number of Aggregation Induction,[4]; Compound 1 10 μM,0
same,induction of platelet aggregation (in words),"[4]; in the presence of SQ-29548, 0.1-10 μM",did not induce platelet aggregation
O=C(O)CCc1cccc2c1OC1CC(O)C(C=CC(O)COc3ccccc3)C21 (centres unmarked) [Compound 3],Platelet Aggregation Rate,[2],43 ± 5.3%
"CCCCC[C@H](O)/C=C/[C@@H]1[C@@H](CC(=O)CCCCC(=O)O)[C@@H](O)C[C@H]1O [Compound 6-oxo-PGF1a, 6-oxo-PGF1a]",known activity (in words),platelets,almost no physiological activity
"NC(=O)CC[C@@H]1NC(=O)[C@H](Cc2ccccc2)NC(=O)[C@H](Cc2ccc(O)cc2)NC(=O)CCSSC[C@@H](C(=O)N2CCC[C@H]2C(=O)N[C@H](CCCN=C(N)N)C(=O)NCC(N)=O)NC(=O)[C@H](CC(N)=O)NC1=O [DDAVP, 1-diamino 8-D-arginine vasopressin]",adverse drug reactions (in words),[5],may induce arterial thrombosis and/or hyponatremia
"CCCCC[C@H](O)/C=C/[C@H]1C(=O)C[C@H](O)[C@@H]1C/C=C\CCCC(=O)O [PGD2, prostaglandin D2]",IC50,"[1]; Compound 1 0 μM, read-out: IC50 of PGD2",0.0388 ± 0.0025 µM
same,IC50,"[1]; in the presence of Compound 1 0.1 μM, read-out: IC50 of PGD2",0.0712 ± 0.0082 µM
same,IC50,"[1]; in the presence of Compound 1 1 μM, *P<0.05, read-out: IC50 of PGD2",0.194 ± 0.028 µM
"CCCCC[C@H](O)/C=C/[C@@H]1[C@H]2C/C(=C/CCCC(=O)O)O[C@H]2C[C@H]1O [PGI2, prostaglandin I2]",known activity (in words),platelets,strong antiplatelet activity and telangiectatic activity
same,stability in neutral aqueous solution (in words),[6],extremely unstable even in a neutral aqueous solution
same,stability and duration of activity in vivo (in words),[7],unstable in vivo and its activity is not long-lasting
